The values below come from patent US10072017B2, “Compounds and methods for the treatment of cystic fibrosis” (Flatley Discovery Lab, LLC, priority 2015, dated 2018).

The target of this test is T1, CFTR (Homo sapiens, UniProt P13569, DEL508-508).
T1 construct: Primary CF airway epithelial cells were obtained from the UNC Cystic Fibrosis Tissue Procurement and Cell Culture Core; host or cells: primary CF airway epithelial cells
Description: Equivalent current assay in Primary CF airway epithelial cells (NAUC). It counts as cell-based. Conditions: 24 h, normalized to VX809 (3 μM) positive control; for Nauc @ 3 μM: 3 μM test compound; for Nauc @ 10 μM: 10 μM test compound. The gist of the method:
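NAUC is the area under the curve from forskolin (10 μM) plus VX770 (1 μM) addition to CFTR-172 (20 μM) block, after benzamil (5 μM). It is corrected for vehicle and scaled to 3 μM VX809 as 1.0 and DMSO as 0.0. Cells were exposed for 24 h to compounds with VX809; medians of ≥4 replicates were fitted sigmoidally.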

T1 sequence (P13569 with tags, fused parts or gaps DEL508-508): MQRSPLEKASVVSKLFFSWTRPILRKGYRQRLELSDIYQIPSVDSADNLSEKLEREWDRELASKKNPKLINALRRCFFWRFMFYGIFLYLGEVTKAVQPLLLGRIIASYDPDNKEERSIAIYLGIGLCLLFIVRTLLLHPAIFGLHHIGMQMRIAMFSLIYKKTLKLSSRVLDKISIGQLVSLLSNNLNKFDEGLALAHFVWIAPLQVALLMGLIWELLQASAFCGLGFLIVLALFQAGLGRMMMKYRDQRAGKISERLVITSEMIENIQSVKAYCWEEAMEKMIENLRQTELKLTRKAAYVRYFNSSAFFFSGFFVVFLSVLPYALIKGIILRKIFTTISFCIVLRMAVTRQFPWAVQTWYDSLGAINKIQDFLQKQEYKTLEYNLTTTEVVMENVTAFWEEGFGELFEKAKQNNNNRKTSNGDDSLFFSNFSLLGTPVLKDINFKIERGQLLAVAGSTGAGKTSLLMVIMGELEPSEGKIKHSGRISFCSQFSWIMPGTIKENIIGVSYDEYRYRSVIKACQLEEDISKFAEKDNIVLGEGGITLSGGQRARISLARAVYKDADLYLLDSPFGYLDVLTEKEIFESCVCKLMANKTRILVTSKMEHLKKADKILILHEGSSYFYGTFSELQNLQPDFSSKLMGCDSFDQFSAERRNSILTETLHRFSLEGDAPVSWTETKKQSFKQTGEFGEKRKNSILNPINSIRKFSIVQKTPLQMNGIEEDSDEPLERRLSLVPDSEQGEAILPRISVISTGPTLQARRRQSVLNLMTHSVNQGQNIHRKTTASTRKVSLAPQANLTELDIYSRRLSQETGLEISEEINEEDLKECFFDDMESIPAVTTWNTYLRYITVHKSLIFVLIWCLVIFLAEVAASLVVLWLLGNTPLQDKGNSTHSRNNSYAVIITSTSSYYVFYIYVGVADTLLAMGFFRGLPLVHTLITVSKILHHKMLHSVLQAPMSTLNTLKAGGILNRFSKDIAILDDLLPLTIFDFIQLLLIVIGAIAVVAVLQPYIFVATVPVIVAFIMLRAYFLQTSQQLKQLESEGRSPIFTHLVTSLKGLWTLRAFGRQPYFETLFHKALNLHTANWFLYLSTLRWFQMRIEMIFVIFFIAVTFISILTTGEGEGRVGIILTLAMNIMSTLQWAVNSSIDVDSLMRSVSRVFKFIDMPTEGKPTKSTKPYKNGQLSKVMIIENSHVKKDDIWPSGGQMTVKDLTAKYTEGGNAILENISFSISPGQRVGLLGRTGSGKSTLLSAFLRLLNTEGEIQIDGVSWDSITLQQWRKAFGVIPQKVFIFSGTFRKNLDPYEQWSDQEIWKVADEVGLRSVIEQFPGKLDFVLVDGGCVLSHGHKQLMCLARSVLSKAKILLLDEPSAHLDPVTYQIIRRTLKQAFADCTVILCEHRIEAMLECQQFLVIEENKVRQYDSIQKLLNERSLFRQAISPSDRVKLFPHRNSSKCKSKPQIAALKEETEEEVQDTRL

As to `O=C1C2C3CCCN3C3(C(=O)Nc4c(Cl)cc(Cl)cc43)C2C(=O)N1c1cc(C(F)(F)F)cc(C(F)(F)F)c1` (stereo not shown) [Example 25], the “Nauc @ 3 μM” value is recorded as “+++ (NAUC “+++” refers to an observed NAUC >170% of positive control)” and the “Nauc @ 10 μM” value was “+++ (NAUC “+++” refers to an observed NAUC >170% of positive control)”.
Turning to `O=C1C2C3CCCN3C3(C(=O)Nc4c(Cl)cc(Cl)cc43)C2C(=O)N1c1cc(C(F)(F)F)cc(C(F)(F)F)c1` (stereo not shown) [Example 26], the “Nauc @ 3 μM” value is reported as “+ (NAUC “+” refers to an observed NAUC <140% of positive control)” and the “Nauc @ 10 μM” value is “+++ (NAUC “+++” refers to an observed NAUC >170% of positive control)”.
The corresponding values for `O=C1C2C3CCCN3C3(C(=O)Nc4c(Cl)cc(Cl)cc43)C2C(=O)N1c1cc(Br)cc(Br)c1` (stereo not shown) [Example 27] are “++ (NAUC “++” refers to an observed NAUC 170-140% of positive control)” and “++ (NAUC “++” refers to an observed NAUC 170-140% of positive control)”.
As for `O=C1C2C3CCCN3C3(C(=O)Nc4c(Cl)cc(Cl)cc43)C2C(=O)N1c1cc(F)cc(Cl)c1` (stereo not shown) [Example 28], the “Nauc @ 3 μM” value was “++ (NAUC “++” refers to an observed NAUC 170-140% of positive control)” and the “Nauc @ 10 μM” value is listed as “+++ (NAUC “+++” refers to an observed NAUC >170% of positive control)”.
As to `O=C1C2C3CCCN3C3(C(=O)Nc4ccc(C(F)(F)F)cc43)C2C(=O)N1c1cc(Cl)cc(Cl)c1` (stereo not shown) [Example 30], the “Nauc @ 3 μM” value was “++ (NAUC “++” refers to an observed NAUC 170-140% of positive control)” and the “Nauc @ 10 μM” value is reported as “+++ (NAUC “+++” refers to an observed NAUC >170% of positive control)”.
The corresponding values for `N#Cc1cc(Cl)cc(N2C(=O)C3C4CCCN4C4(C(=O)Nc5c(Cl)cc(Cl)cc54)C3C2=O)c1` (stereo not shown) [Example 31] are “+ (NAUC “+” refers to an observed NAUC <140% of positive control)” and “+++ (NAUC “+++” refers to an observed NAUC >170% of positive control)”.
Take `O=C1C2CN(C3CCCC3)C3(C(=O)Nc4c(Cl)cc(Cl)cc43)C2C(=O)N1c1cc(Cl)cc(Cl)c1` (stereo not shown) [Example 32]: the “Nauc @ 3 μM” value is on record as “++ (NAUC “++” refers to an observed NAUC 170-140% of positive control)” and the “Nauc @ 10 μM” value is listed as “+++ (NAUC “+++” refers to an observed NAUC >170% of positive control)”.
As to `O=C1C2C3CCCN3C3(C(=O)Nc4c(Cl)cc(Cl)cc43)C2C(=O)N1c1cc(Cl)nc(Cl)c1` (stereo not shown) [Example 33], the “Nauc @ 3 μM” value was “++ (NAUC “++” refers to an observed NAUC 170-140% of positive control)” and the “Nauc @ 10 μM” value is reported as “+++ (NAUC “+++” refers to an observed NAUC >170% of positive control)”.
Take `O=C1C2C3CCCN3C3(C(=O)Nc4c(Br)cc(Br)cc43)C2C(=O)N1c1cc(Cl)cc(Cl)c1` (stereo not shown) [Example 34]: the “Nauc @ 3 μM” value is recorded as “+++ (NAUC “+++” refers to an observed NAUC >170% of positive control)” and the “Nauc @ 10 μM” value is “+++ (NAUC “+++” refers to an observed NAUC >170% of positive control)”.
Regarding `O=C1C2C3CCCN3C3(C(=O)Nc4c(Cl)cc(Cl)cc43)C2C(=O)N1c1cc(Cl)cc(Br)c1` (stereo not shown) [Example 35], the “Nauc @ 3 μM” value was “+ (NAUC “+” refers to an observed NAUC <140% of positive control)” and the “Nauc @ 10 μM” value is on record as “+++ (NAUC “+++” refers to an observed NAUC >170% of positive control)”.
Take `O=C1C2C3CCCN3C3(C(=O)Nc4c(Cl)cc(F)cc43)C2C(=O)N1c1cc(F)cc(Cl)c1` (stereo not shown) [Example 36]: the “Nauc @ 3 μM” value was “+ (NAUC “+” refers to an observed NAUC <140% of positive control)” and the “Nauc @ 10 μM” value is given as “+++ (NAUC “+++” refers to an observed NAUC >170% of positive control)”.
For `O=C1C2C3CCCN3C3(C(=O)Nc4c(F)cc(Cl)cc43)C2C(=O)N1c1cc(F)cc(Cl)c1` (stereo not shown) [Example 37], the “Nauc @ 3 μM” value is recorded as “+ (NAUC “+” refers to an observed NAUC <140% of positive control)” and the “Nauc @ 10 μM” value is listed as “++ (NAUC “++” refers to an observed NAUC 170-140% of positive control)”.
The corresponding values for `CC12C(=O)N(c3cc(Cl)cc(Cl)c3)C(=O)C1(C)C1(C(=O)Nc3c(Cl)cc(Cl)cc31)N1CCCC12` (stereo not shown) [Example 39] are “+ (NAUC “+” refers to an observed NAUC <140% of positive control)” and “++ (NAUC “++” refers to an observed NAUC 170-140% of positive control)”.
Take `O=C1C2C3C[C@H](O)CN3C3(C(=O)Nc4c(Br)cc(Br)cc43)C2C(=O)N1c1cc(Cl)cc(Cl)c1` (stereo partly shown) [Example 40]: the “Nauc @ 3 μM” value was “+++ (NAUC “+++” refers to an observed NAUC >170% of positive control)” and the “Nauc @ 10 μM” value was “+++ (NAUC “+++” refers to an observed NAUC >170% of positive control)”.
For the compound `O=C1C2C3C[C@H](O)CN3C3(C(=O)Nc4c(Cl)cc(Cl)cc43)C2C(=O)N1c1cc(Cl)cc(Br)c1` (stereo partly shown) [Example 41], the “Nauc @ 3 μM” value was “++ (NAUC “++” refers to an observed NAUC 170-140% of positive control)” and the “Nauc @ 10 μM” value is “+++ (NAUC “+++” refers to an observed NAUC >170% of positive control)”.
For the compound `O=C1C2C3C[C@H](O)CN3C3(C(=O)Nc4ccc(C(F)(F)F)cc43)C2C(=O)N1c1cc(Cl)cc(Cl)c1` (stereo partly shown) [Example 42], the “Nauc @ 3 μM” value was “++ (NAUC “++” refers to an observed NAUC 170-140% of positive control)” and the “Nauc @ 10 μM” value is on record as “++ (NAUC “++” refers to an observed NAUC 170-140% of positive control)”.
Turning to `O=C1C2C3C[C@H](O)CN3C3(C(=O)Nc4c(Cl)cc(Cl)cc43)C2C(=O)N1c1cc(C(F)(F)F)cc(C(F)(F)F)c1` (stereo partly shown) [Example 43], the “Nauc @ 3 μM” value was “++ (NAUC “++” refers to an observed NAUC 170-140% of positive control)” and the “Nauc @ 10 μM” value is given as “+++ (NAUC “+++” refers to an observed NAUC >170% of positive control)”.
The like results for `CC12C(=O)N(c3cc(Cl)cc(Cl)c3)C(=O)C1C1(C(=O)Nc3c(Cl)cc(Cl)cc31)N1CCCC12` (stereo not shown) [Example 44] were, in that order, “++ (NAUC “++” refers to an observed NAUC 170-140% of positive control)” and “+ (NAUC “+” refers to an observed NAUC <140% of positive control)”.
The like results for `O=C1C2C3C[C@H](O)CN3C3(C(=O)Nc4c(Cl)cc(Cl)cc43)C2C(=O)N1c1cc(Br)cc(Br)c1` (stereo partly shown) [Example 45] were, in that order, “+ (NAUC “+” refers to an observed NAUC <140% of positive control)” and “+++ (NAUC “+++” refers to an observed NAUC >170% of positive control)”.
The like results for `Cc1ccc2c(c1)C1(C(=O)N2)C2C(=O)N(c3cc(Cl)cc(Cl)c3)C(=O)C2C2CCCN21` (stereo not shown) [Example 47] were, in that order, “++ (NAUC “++” refers to an observed NAUC 170-140% of positive control)” and “++ (NAUC “++” refers to an observed NAUC 170-140% of positive control)”.
As to `O=C1C2C3CCCN3C3(C(=O)Nc4c(Cl)cc(Cl)cc43)C2C(=O)N1CCCBr` (stereo not shown) [Example 48], the “Nauc @ 3 μM” value is “++ (NAUC “++” refers to an observed NAUC 170-140% of positive control)” and the “Nauc @ 10 μM” value is “+ (NAUC “+” refers to an observed NAUC <140% of positive control)”.
For `O=C1C2C3C[C@H](F)CN3C3(C(=O)Nc4c(Cl)cc(Cl)cc43)C2C(=O)N1c1cc(Cl)cc(Cl)c1` (stereo partly shown) [Example 49], the “Nauc @ 3 μM” value was “++ (NAUC “++” refers to an observed NAUC 170-140% of positive control)” and the “Nauc @ 10 μM” value is reported as “+++ (NAUC “+++” refers to an observed NAUC >170% of positive control)”.
For `O=C1C2C3CCCN3C3(C(=O)Nc4c(Cl)cc(Cl)cc43)C2C(=O)N1c1cc(Cl)cc(Cl)n1` (stereo not shown) [Example 52], the “Nauc @ 3 μM” value is given as “++ (NAUC “++” refers to an observed NAUC 170-140% of positive control)” and the “Nauc @ 10 μM” value is given as “+++ (NAUC “+++” refers to an observed NAUC >170% of positive control)”.
The corresponding values for `O=C1C2C3CC(F)(F)CN3C3(C(=O)Nc4c(Cl)cc(Cl)cc43)C2C(=O)N1c1cc(Cl)cc(Cl)c1` (stereo not shown) [Example 53] are “++ (NAUC “++” refers to an observed NAUC 170-140% of positive control)” and “++ (NAUC “++” refers to an observed NAUC 170-140% of positive control)”.
Turning to `C=C1CC2C3C(=O)N(c4cc(Cl)cc(Cl)c4)C(=O)C3C3(C(=O)Nc4c(Cl)cc(Cl)cc43)N2C1` (stereo not shown) [Example 55], the “Nauc @ 3 μM” value was “+ (NAUC “+” refers to an observed NAUC <140% of positive control)” and the “Nauc @ 10 μM” value is “+++ (NAUC “+++” refers to an observed NAUC >170% of positive control)”.
For the compound `O=C1C2C3C[C@H](Cl)CN3C3(C(=O)Nc4c(Cl)cc(Cl)cc43)C2C(=O)N1c1cc(Cl)cc(Cl)c1` (stereo partly shown) [Example 57], the “Nauc @ 3 μM” value is reported as “+++ (NAUC “+++” refers to an observed NAUC >170% of positive control)” and the “Nauc @ 10 μM” value is recorded as “+++ (NAUC “+++” refers to an observed NAUC >170% of positive control)”.
As to `O=C1C2C3C[C@H](O)CN3C3(C(=O)Nc4c(Cl)cc(Cl)cc43)C2C(=O)N1c1cc(Cl)cc(Cl)n1` (stereo partly shown) [Example 59], the “Nauc @ 3 μM” value is listed as “+ (NAUC “+” refers to an observed NAUC <140% of positive control)” and the “Nauc @ 10 μM” value is “+++ (NAUC “+++” refers to an observed NAUC >170% of positive control)”.
Consider `N[C@@H]1CC2C3C(=O)N(c4cc(Cl)cc(Cl)c4)C(=O)C3C3(C(=O)Nc4c(Cl)cc(Cl)cc43)N2C1` (stereo partly shown) [Example 60], for which the “Nauc @ 3 μM” value is “+ (NAUC “+” refers to an observed NAUC <140% of positive control)” and the “Nauc @ 10 μM” value was “++ (NAUC “++” refers to an observed NAUC 170-140% of positive control)”.
`CC1CC2C3C(=O)N(c4cc(Cl)cc(Cl)c4)C(=O)C3C3(C(=O)Nc4c(Cl)cc(Cl)cc43)N2C1` (stereo not shown) [Example 63]: the “Nauc @ 3 μM” value is on record as “+++ (NAUC “+++” refers to an observed NAUC >170% of positive control)” and the “Nauc @ 10 μM” value was “+++ (NAUC “+++” refers to an observed NAUC >170% of positive control)”.
